This note sets out measurements from the NIST ThermoML archive (doi:10.1021/je8009978).

Numbers after ± are expanded uncertainties.

For data set [1] the following is noted: Liquid.
The nature of data set [2]: refractive index (Na D-line) (dimensionless). The conditions noted are these: 298.15 K; 101.33 kPa; Liquid; Standard Abbe refractometry.

`CC(C)CO` [2-methyl-1-propanol]: in data set [1] (298.15 K, 101.33 kPa, Vibrating tube method), the mass density came out at 797.6 ± 0.3 kg/m3. Further, the Normal boiling temperature in data set [1] (Closed cell (Static) method) was 107.83 ± 0.2 °C. Also, the refractive index in data set [2] was 1.3939 ± 0.0004.
